The values below come from patent publication US10383849B2, “Use of an acetylcholinesterase inhibitor and idalopirdine for reducing falls in Parkinson's disease patients” (H. Lundbeck A/S, priority 2016, dated 2019).

In experiment [1] the test system is DL rats (dual striatal-dopaminergic, cortical cholinergic system lesions). As to the kind of experiment: MCMCT rotating rod with passive doorframe distractor (test days 6, 7, 11). It is filed as in vivo, Sprague Dawley rats. As to conditions: compared with SH/VEH rats. Here is the method: Of the 70 rats, 56 (28 females and 28 males) received dual striatal-dopaminergic, corticalcholinergic system lesions (DL) and were randomly assigned to 4 treatment conditions after surgeries (n=14/group, 7/sex). 14 rats (7/sex) received sham lesions. 6-OHDA was delivered bilaterally to dopamine terminals in the dorsal striatum (Sigma-Aldrich; 6.0 μg/2 μL/infusion, bolus; dissolved in 0.9% NaCl with 0.1% ascorbic acid; two infusion sites per hemisphere: AP+1.2 and +0.2 mm; ML ±2.5 and ±3.0 mm relative to bregma; DV −4.8 and −5.0 mm from skull). […]
Complex movement performance measures including fall propensity were assessed using the MCMCT (for details and an illustration see Kucinski, A. et al (2013) Modelling fall propensity in Parkinson's disease: Deficits in the attentional control of complex movements in rats with cortical-cholinergic and striatal-dopaminergic deafferentation. J Neurosci, 33, 16522-16539). […]
Falls, slips, and traversal time were assessed as described in Kucinski, A. et al (2013) Modelling fall propensity in Parkinson's disease: Deficits in the attentional control of complex movements in rats with cortical-cholinergic and striatal-dopaminergic deafferentation. […] A slip was scored when any of the rats' paws lost contact with the surface of the rod and extended below the lower horizontal border of the rod. […]

Experiment [2] has the same test system. In words: MCMCT rotating rod with active distractor (water retrieval). Format: in vivo, Sprague Dawley rats. Particulars: for number of animals that retrieved water in at least one trial: of 14 DL rats per group, licking water for at least 1 s, DL/VEH 9, SH/VEH 13. Here is the method:
(§1) Of the 70 rats, 56 (28 females and 28 males) received dual striatal-dopaminergic, corticalcholinergic system lesions (DL) and were randomly assigned to 4 treatment conditions after surgeries (n=14/group, 7/sex). 14 rats (7/sex) received sham lesions. 6-OHDA was delivered bilaterally to dopamine terminals in the dorsal striatum (Sigma-Aldrich; 6.0 μg/2 μL/infusion, bolus; dissolved in 0.9% NaCl with 0.1% ascorbic acid; two infusion sites per hemisphere: AP+1.2 and +0.2 mm; ML ±2.5 and ±3.0 mm relative to bregma; DV −4.8 and −5.0 mm from skull). Desipramine hydrochloride (10 mg/kg; i.p.; Sigma-Aldrich) was administered to rats receiving 6-OHDA infusions 30 min prior to surgeries for protection of noradrenergic neurons^4. Basal forebrain cholinergic neurons situated in the nucleus basalis and substantia innominate were targeted with immunotoxin 192 IgG-saporin (Advanced Targeting Systems) in aCSF infused bilaterally (120 ng/μL; 0.5 μL/hemisphere; AP −0.8; ML ±2.9; DV −7.8). Sham rats received equal volumes of 0.9% NaCl with 0.1% ascorbic acid (striatum) and aCSF (basal forebrain) without neurotoxins.
Two distractors were presented during traversals. First, a passive doorframe distractor, comprised of a 46.0×39.4 cm surface with a door-frame shape cutout of 20 cm×10 cm made of foam core, was incorporated into the MCMCT test sequence. The distractor was placed at the midway point along the beam (100 cm mark) with side jambs 3.5 cm from the rod surface on both sides and the top border of the doorframe cutout 11 cm above the flat rod surface. […] Second, animals were tested with an active distractor task in which a water reward (3 drops of water; ˜150 μL) was presented on a platform (4.9 cm diameter) during traversals. The platform was also placed at the 100 cm mark, with 2-3 cm separating the rod and the platform.
Rats were first acclimated to the task in 4 shaping trials (test days 8 and 9). In these trials rats were placed directly on the stationary (non-rotating) rod adjacent to the platform (approximately midway across the beam) and allowed to drink the water from the platform. After shaping trials, rats underwent 4 test trials in which the rats performed unassisted traversals of the rotating rod (alternating directions) with presentations of water rewards. In two other test days (10 and 12), rats performed 10 test runs per day. In addition to falls, the number of water rewards earned, defined as licking/drinking water from the platform for ≥1 sec, were counted. All trials were recorded using a system of 4 bullet cameras (KT&C; model KPCS190SH Black/White Bullet Camera with ⅓″ SONY Super HAD CCD) with rotatable bases that were fastened to the outer support frame of the outer side of the apparatus by hand clamps. Performance measures were analyzed by video playback by experimenters blind to the lesion status and treatment regimen of the rats
Donepezil and idalopirdine were dissolved in 5% 2-hydroxypropyl-beta-cyclodextrin vehicle solution. Rats were divided into the following drug administration groups (14 per group, 7 per sex): sham-lesioned and administered vehicle (SH/VEH), DL and vehicle (DL/VEH), DL and donepezil (DL/DON), DL and idalopirdine (DL/IDL), and DL and idalopirdine plus donepezil (DL/DON+IDL). Solutions were prepared the night before administration and were replaced every 6 days. DON and IDL were dissolved in the same solution for the combination treatment. […]

For experiment [3] the test system is unchanged. As to the kind of experiment: MCMCT rod traversal, stationary and rotating rod (test days 2-5), Example 1. It is filed as in vivo, Sprague Dawley rats. As to conditions: for number of slips: rod days 2-5, DL/VEH 2.04+0.16, SH/VEH 1.60+0.11; for traversal speed (time per rod traversal): rod days 2-5, DL/VEH 4.62±0.25 s, SH/VEH 3.96±0.19 s, mean±SEM; for frequency of falls during rod traversal: s.c. 30 min before MCMCT, across all rod conditions days 2-5, compared with DL/VEH. How it is done: Adult male and female Sprague Dawley rats (Harlan; N=70; 35 males and 35 females) between 3 and 6 months of age were individually housed in opaque single standard cages (27.70 cm×20.30 cm) in a temperature- and humidity-controlled environment (23° C., 45%). […] The animals were maintained under a 12:12 hour light/dark schedule (lights on at 8:00 AM). Food (Rodent Chow; Harlan Teklad) was available ad libitum. Water access was gradually restricted over a 7-day period (12, 8, 5, 3, 1, 0.5, 0.25 hrs of water access per day) in the week before pre- and postsurgery behavioral testing. During testing, water was provided as rewards for correct responses during SAT performance and following beam traversals on the MCMCT (see below). Rats were also provided water ad libitum for 15 min following SAT performance each day.
Following pre-surgery training, animals underwent stereotaxic lesion surgeries followed by 4 weeks of recovery. During the final week of recovery animals were gradually water restricted. Drug effects were then assessed with 12 consecutive days of SAT and MCMCT sessions (see Table 1 for the battery of MCMCT test conditions):
Drug or vehicle injections were administered 30 minutes prior to SAT performance (˜9:30 injections, SAT testing 10:00-10:45 a.m.) and in the afternoon before MCMCT testing (˜3:30-6:00 p.m.). For the MCMCT runs, rats were injected individually so that trials began exactly 30 minutes after injection for each animal.
as §1
Complex movement performance measures including fall propensity were assessed using the MCMCT (for details and an illustration see Kucinski, A. et al (2013) Modelling fall propensity in Parkinson's disease: Deficits in the attentional control of complex movements in rats with cortical-cholinergic and striatal-dopaminergic deafferentation. J Neurosci, 33, 16522-16539). This beam traversal apparatus was designed to tax the ability of rats to perform attention demanding movements and correct for stepping errors while crossing a narrow square rod surface (2.54 cm2). The ends of the beam (2.0 m length) were held in sockets that allowed the rod to be rotated by a gear motor (10 RPM) coupled to one end of the beam element. Traversal of the rod, particularly when rotating, reliably generated falls and other movement impairments in rats with dual lesions of striatal dopaminergic and cortical cholinergic inputs. A flat plank surface (13.3 cm wide) was also used to assess basic motor capacity and for habituation to the apparatus. Two identical platforms (23.0×31.5 cm area) situated at the opposite ends of the beam were surrounded by retractable walls (27.0 cm height) to form end-box structures. The walls are raised and lowered manually and secured in position by a friction clamp which rides in a vertical slot in the support structure under the platform. […]

A further experiment deals with patients with AD. As to conditions: compared to donepezil treated patients; cited from earlier work.

Regarding `COc1cc2c(cc1OC)C(=O)C(CC1CCN(Cc3ccccc3)CC1)C2` (centres unmarked) [DON, donepezil], the “doorframe-associated falls (fall rates in the presence of the doorframe)” value in experiment [1] is “experienced more doorframe-associated falls than SH/VEH rats”. Also, the “rod traversal performance in the presence of the active distractor” value in experiment [2] (DL rats) was “did not significantly improve the performance”. In addition, the water retrieval count entry in experiment [2] (DL rats, multiple comparisons (FIG. 3B)) was “not significantly lower than DL/VEH”. Further, the “number of animals that retrieved water in at least one trial” value in experiment [2] is 10. In experiment [3], the number of slips was 2.04+0.14, the “traversal speed (time per rod traversal)” value is 4.48 ± 0.36 s and the “frequency of falls during rod traversal” value is reported as “tended to be lower than in DL/VEH rats but the effect did not reach significance”.

With `Fc1ccc2c(CCNCc3cccc(OCC(F)(F)C(F)F)c3)c[nH]c2c1` [IDL, N-(2-(6-fluoro-1H-indol-3-yl)ethyl)-3-(2,2,3,3-tetrafluoropropoxy) benzylamine], in the experiment with patients with AD, the “secondary endpoints including measures of global impression and daily living activities” value is reported as “positive results”. For the same compound, the “doorframe-associated falls (fall rates in the presence of the doorframe)” value in experiment [1] is listed as “experienced more doorframe-associated falls than SH/VEH rats”. For the same compound, the “rod traversal performance in the presence of the active distractor” value in experiment [2] (DL rats) was “did not significantly improve the performance”. In experiment [2], the “number of animals that retrieved water in at least one trial” value turned out to be 11. In experiment [3], the number of slips is given as 2.51+0.38, the “traversal speed (time per rod traversal)” value stood at 5.48 ± 0.45 s and the “frequency of falls during rod traversal” value is recorded as “fell as frequently as untreated DL rats”.
